Earlier results, collected in patent US20230140155A1, “MEDICAMENT FOR TREATMENT AND/OR PREVENTION OF CANCER” (TORAY INDUSTRIES, INC., priority 2020, published 2023).

Test system: basal-like subtype breast cancer (BLBC)
Details: with docetaxel following epirubicin and cyclophosphamide (EC treatment)

## [NH2][Pt]1([NH2])[O]C(=O)C2(CCC2)C(=O)[O]1 [carboplatin, (SP-4-2)-diammine[cyclobutan-1,1-dicaruboxylato(2-)-O,O′]platinum]
  effectiveness for treatment of BLBC: not effective
